Results taken from US10494380B2, “Nitrogen-containing tricyclic derivatives having HIV replication inhibitory activity” (priority 2015, dated 2019).

What follows are compounds tested on T125A mutant virus (HIV-1 NL-432 recombinant molecular clone, IN gene) (assay: HIV replication inhibition assay against integrase 124/125 mutant virus (Test Example 2)). Settings: Human immunodeficiency virus 1, MT4, read-out: EC50 against T125A mutant virus, T125A mutant virus (HIV-1 NL-432 IN gene), MT-4 cells, MTT.
Format: cell-based
Experimental: Persistently HIV (HTLV-IIIB strain) infected human T cell strain Molt-4 clone8 was cultured in RPMI-1640 medium supplemented with 10% fetal bovine serum and the supernatant was filtered, then the virus titer was measured and stored at −80° C. Polymorphic mutations in HIV-1-infected patients have been observed in amino acids 124 and 125 on the HIV-1 integrase (IN) gene. A point mutation was introduced on the amino acids 124 and/or 125 of IN gene of the HIV-1 NL-432 recombinant molecular clone to generate a mutant virus plasmid construct. These mutant virus plasmids were transfected into 293T cells, and after two days, the supernatant was filtered and then the virus titer was measured and stored at −80° C. Each anti-HIV active substance was diluted with culture medium described above to the designated concentration, which was dispensed into 96-well microtiter plate by 50 μL. Next, 100 μL of MT-4 cell suspension (2.5×10^4 cells) was dispensed into each well, then 50 μl of HIV-containing supernatant diluted with culture medium described above was added thereto (60 pfu (plaque forming unit)).
Cells were cultured at 37° C. in CO2 incubator for four days, then 30 μL of MTT (3-(4,5-dimethylthiazole-2-yl)-2,5-diphenyltetrazolyum bromide) reagent (5 mg/mL in PBS) was added to all wells followed by incubation for 1 hour. In this step, MTT was reduced to insoluble formazan in living cells. To elute generated formazan, 150 μL of the culture supernatant was removed from all wells, then 150 μL of cell lysis solution (10% Triton X-100 and 0.4% (v/v)-HCl containing isopropanol) was added thereto, followed by shaking with a plate mixer. The formazan was measured with micro plate reader at OD: 560 nm and 690 nm (reference wavelength) and the result was compared with the reference wells. EC50 means the compound concentration at which 50% of cytotoxicity caused by virus infection is inhibited.
Compound `CCOC(=O)N1CCn2c(C)cc3c(-c4ccc(Cl)cc4)c([C@H](OC(C)(C)C)C(=O)O)c(C)c1c32` [Compound I-064] has an EC50 of 19 nM.
`COC(=O)N1c2c(C)c([C@H](OC(C)(C)C)C(=O)O)c(-c3ccc(Cl)cc3)c3cc(C)n(c23)C[C@@H]1C` [Compound I-065] gave an EC50 of 12 nM.
For `[2H]C1([2H])N(C)c2c(C)c([C@H](OC(C)(C)C)C(=O)O)c(-c3ccc(Cl)cc3)c3cc(C)n(c23)C1([2H])[2H]` [Compound I-066], the EC50 was 4 nM.
In the case of `Cc1ccc(-c2c([C@H](OC(C)(C)C)C(=O)O)c(C)c3c4c2cc(Cl)n4CCN3C)cc1` [Compound I-068], the EC50 is reported as 6.8 nM.
Compound `CCC(=O)N1c2c(C)c([C@H](OC(C)(C)C)C(=O)O)c(-c3ccc(Cl)cc3)c3cc(C)n(c23)C[C@@H]1C` [Compound I-069] has an EC50 of 16 nM.
In the case of `Cc1c([C@H](OC(C)(C)C)C(=O)O)c(-c2ccc(Cl)cc2)c2cc(C)n3c2c1N(C(=O)C1CC1)[C@@H](C)C3` [Compound I-070], the EC50 is reported as 43 nM.
Work on `Cc1c([C@H](OC(C)(C)C)C(=O)O)c(-c2ccc(Cl)cc2)c2cc(C)n3c2c1N(C)S(=O)(=O)CC3` [Compound I-071] yielded an EC50 of 45 nM.
`Cc1c([C@H](OC(C)(C)C)C(=O)O)c(-c2ccc(Cl)cc2)c2cc(C)n3c2c1N(C)S(=O)(=O)C3` [Compound I-072] showed an EC50 of 13 nM.
With `Cc1c([C@H](OC(C)(C)C)C(=O)O)c(-c2cc(F)c(Cl)c(F)c2)c2cc(C)n3c2c1N(C)CC3` [Compound I-073] the EC50 was 39 nM.
`COc1ccc(-c2c([C@H](OC(C)(C)C)C(=O)O)c(C)c3c4c2cc(C)n4CCN3C)cc1` [Compound I-074] was tested, and the EC50 was 27 nM.
Work on `Cc1c([C@H](OC(C)(C)C)C(=O)O)c(-c2ccc(Cl)cc2)c2cc(C)n3c2c1N(CCN(C)C)CC3` [Compound I-075] yielded an EC50 of 24 nM.
`COCCN1CCn2c(C)cc3c(-c4ccc(Cl)cc4)c([C@H](OC(C)(C)C)C(=O)O)c(C)c1c32` [Compound I-076] gave an EC50 of 16 nM.
`Cc1c([C@H](OC(C)(C)C)C(=O)O)c(-c2ccc(Cl)cc2)c2cc(C)n3c2c1N(S(C)(=O)=O)CCC3` [Compound I-078] gave an EC50 of 21 nM.
`Cc1c([C@H](OC(C)(C)C)C(=O)O)c(-c2ccc(Cl)cc2)c2cc(C)n3c2c1N(C)CCC3` [Compound I-079] was tested, and the EC50 was 17 nM.
With `Cc1c([C@H](OC(C)(C)C)C(=O)O)c(-c2ccc(Cl)cc2)c2c(C)c(C)n3c2c1N(C)CC3` [Compound I-080] the EC50 was 33 nM.
`Cc1ccc(-c2c([C@H](OC(C)(C)C)C(=O)O)c(C)c3c4c2cc(Br)n4CCN3C)cc1` [Compound I-081] showed an EC50 of 9.6 nM.
`CCc1ccc(-c2c([C@H](OC(C)(C)C)C(=O)O)c(C)c3c4c2cc(C)n4CCN3C)cc1` [Compound I-082] was tested, and the EC50 was 6.1 nM.
`Cc1c([C@H](OC(C)(C)C)C(=O)O)c(-c2ccc(Cl)cc2)c2cc(C)n3c2c1N(CC1CC1)[C@@H](C)C3` [Compound I-083] showed an EC50 of 15 nM.
Compound `COC[C@H]1Cn2c(C)cc3c(-c4ccc(Cl)cc4)c([C@H](OC(C)(C)C)C(=O)O)c(C)c(c32)N1S(C)(=O)=O` [Compound I-086] has an EC50 of 11 nM.
`COC[C@@H]1Cn2c(C)cc3c(-c4ccc(Cl)cc4)c([C@H](OC(C)(C)C)C(=O)O)c(C)c(c32)N1S(C)(=O)=O` [Compound I-087] gave an EC50 of 20 nM.
With `Cc1c([C@H](OC(C)(C)C)C(=O)O)c(-c2ccc(Cl)cc2)c2cc(C)n3c2c1N(S(C)(=O)=O)[C@@H](C(F)F)C3` [Compound I-088] the EC50 was 27 nM.
In the case of `COCCN1CCn2c(C)cc3c(-c4ccc(F)cc4)c([C@H](OC(C)(C)C)C(=O)O)c(C)c1c32` [Compound I-089], the EC50 is reported as 18 nM.
With `Cc1c([C@H](OC(C)(C)C)C(=O)O)c(-c2ccc(F)cc2)c2cc(C)n3c2c1N(C)[C@H](C)C3` [Compound I-092] the EC50 was 7.6 nM.
`Cc1c([C@H](OC(C)(C)C)C(=O)O)c(-c2ccc(F)cc2)c2cc(C)n3c2c1N(C)[C@@H](C)C3` [Compound I-093] was tested, and the EC50 was 16 nM.
With `Cc1c([C@H](OC(C)(C)C)C(=O)O)c(-c2ccc(Cl)cc2)c2cc(Cl)n3c2c1N(S(C)(=O)=O)CC3` [Compound I-094] the EC50 was 12 nM.
Compound `Cc1c([C@H](OC(C)(C)C)C(=O)O)c(-c2ccc(Cl)cc2)c2cc(C)n3c2c1N(S(C)(=O)=O)[C@@H](CF)C3` [Compound I-095] has an EC50 of 14 nM.
For `Cc1c([C@H](OC(C)(C)C)C(=O)O)c(-c2ccc(F)cc2)c2cc(C)n3c2c1N(S(C)(=O)=O)CC3` [Compound I-096], the EC50 was 19 nM.
`[2H]C1([2H])N(C(=O)OC)c2c(C)c([C@H](OC(C)(C)C)C(=O)O)c(-c3ccc(Cl)cc3)c3cc(C)n(c23)C1([2H])[2H]` [Compound I-097] was tested, and the EC50 was 9.7 nM.
Compound `[2H]C([2H])([2H])N1c2c(C)c([C@H](OC(C)(C)C)C(=O)O)c(-c3ccc(Cl)cc3)c3cc(C)n(c23)C([2H])([2H])C1([2H])[2H]` [Compound I-103] has an EC50 of 3.4 nM.
Compound `[2H]C([2H])([2H])N1CCn2c(C)cc3c(-c4ccc(Cl)cc4)c([C@H](OC(C)(C)C)C(=O)O)c(C)c1c32` [Compound I-104] has an EC50 of 4.1 nM.
`[2H]C1([2H])N(C)c2c(C)c([C@H](OC(C)(C)C)C(=O)O)c(-c3ccc(F)cc3)c3cc(C)n(c23)C1([2H])[2H]` [Compound I-105] showed an EC50 of 11 nM.
`[2H]C([2H])([2H])N1c2c(C)c([C@H](OC(C)(C)C)C(=O)O)c(-c3ccc(F)cc3)c3cc(C)n(c23)C([2H])([2H])C1([2H])[2H]` [Compound I-106] showed an EC50 of 11 nM.
`Cc1c([C@H](OC(C)(C)C)C(=O)O)c(-c2ccc(Cl)cc2)c2cc(C)n3c2c1N(Cc1ccccc1)CC3` [Compound I-107] showed an EC50 of 25 nM.
`COCC[C@@H]1Cn2c(C)cc3c(-c4ccc(Cl)cc4)c([C@H](OC(C)(C)C)C(=O)O)c(C)c(c32)N1S(C)(=O)=O` [Compound I-108] showed an EC50 of 19 nM.
`COCC[C@H]1Cn2c(C)cc3c(-c4ccc(Cl)cc4)c([C@H](OC(C)(C)C)C(=O)O)c(C)c(c32)N1C` [Compound I-109] gave an EC50 of 15 nM.
`COC(=O)N1c2c(C)c([C@H](OC(C)(C)C)C(=O)O)c(-c3ccc(Cl)cc3)c3cc(C)n(c23)C[C@H]1C` [Compound I-111] gave an EC50 of 4.2 nM.
In the case of `Cc1c([C@H](OC(C)(C)C)C(=O)O)c(-c2ccc(Cl)cc2)c2cc(C)n3c2c1N(CCN(C)C)[C@@H](C)C3` [Compound I-113], the EC50 is reported as 22 nM.
`Cc1c([C@H](OC(C)(C)C)C(=O)O)c(-c2ccc(F)cc2)c2cc(Cl)n3c2c1N(C)CC3` [Compound I-114] was tested, and the EC50 was 18 nM.
For `[2H]C1([2H])N(C)c2c(C)c([C@H](OC(C)(C)C)C(=O)O)c(-c3ccc(Cl)cc3)c3cc(Cl)n(c23)C1([2H])[2H]` [Compound I-115], the EC50 was 11 nM.
For `Cc1c([C@H](OC(C)(C)C)C(=O)O)c(-c2ccc(Cl)cc2)c2cc(C)n3c2c1N(Cc1ncccn1)CC3` [Compound I-116], the EC50 was 6.7 nM.
With `Cc1c([C@H](OC(C)(C)C)C(=O)O)c(-c2ccc(Cl)cc2)c2cc(C)n3c2c1N(Cc1ccccn1)CC3` [Compound I-117] the EC50 was 8.6 nM.
Work on `[2H]C([2H])([2H])N1CCn2c(C)cc3c(-c4ccc(F)cc4)c([C@H](OC(C)(C)C)C(=O)O)c(C)c1c32` [Compound I-118] yielded an EC50 of 10 nM.

Same assay, conditions: read-out: EC50 against T125A mutant virus; T125A mutant virus (HIV-1 NL-432 IN gene), MT-4 cells, MTT
`Cc1c([C@H](OC(C)(C)C)C(=O)O)c(-c2ccc(Cl)cc2)c2cc(C)n3c2c1N(S(C)(=O)=O)CC3C` (stereo partly drawn) [Compound I-063] showed an EC50 of 4.5 nM.
With `Cc1c([C@H](OC(C)(C)C)C(=O)O)c(-c2ccc(Cl)cc2)c2cc(C)n3c2c1N(C)CC3C` (stereo partly drawn) [Compound I-090] the EC50 was 39 nM.
In the case of `Cc1c([C@H](OC(C)(C)C)C(=O)O)c(-c2ccc(Cl)cc2)c2cc(C)n3c2c1N(C)CC3C` (stereo partly drawn) [Compound I-091], the EC50 is reported as 2 nM.
